From PMC4140855, “Production of an Attenuated Phenol-Soluble Modulin Variant Unique to the MRSA Clonal Complex 30 Increases Severity of Bloodstream Infection” (PLoS Pathogens, 2014)

Experiments:
Format in all cases: cell-based
[1] = biological target: T1, FPR2 (Homo sapiens, UniProt P25090); assay: Ca2+ flux in HL60 cells stably transfected with FPR2; settings: for Activation of FPR2 relative to FPR1 and FPR3: both peptides
T1 construct: expressed in transfected cells; host or cells: HL60 cells, stably transfected
T1 sequence (P25090 1-351): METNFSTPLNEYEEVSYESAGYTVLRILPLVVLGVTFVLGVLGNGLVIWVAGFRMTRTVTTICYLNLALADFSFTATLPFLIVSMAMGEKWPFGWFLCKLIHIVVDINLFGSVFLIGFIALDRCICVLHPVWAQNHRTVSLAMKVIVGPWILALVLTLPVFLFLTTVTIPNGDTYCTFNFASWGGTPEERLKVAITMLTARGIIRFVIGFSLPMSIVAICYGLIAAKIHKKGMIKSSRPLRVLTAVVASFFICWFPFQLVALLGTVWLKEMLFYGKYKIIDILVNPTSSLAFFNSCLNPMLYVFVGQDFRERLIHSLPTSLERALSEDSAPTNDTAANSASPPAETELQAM
Experimental: (§1) Next, we analyzed Ca^2+ flux as a general measure to test for neutrophil activation, as used in previous studies. HL60 cells stably transfected with different FPR receptor genes were used to determine which FPR receptors are differentially activated by PSMα3 versus PSMα3N22Y (Fig. 4A). […] At a peptide concentration of 100 nM, we observed a difference of ∼factor 2 in chemotactic activity comparing the two peptides when FPR1 recognition was inhibited by CHIPS, likely attributable to FPR2-mediated recognition. Owing to the overall ∼10 times lower capacity to stimulate FPR receptors other than FPR2, we observed no chemotaxis at that peptide concentration with addition of the FPR2 blocking agent FLIPr.
(A) Differential activation of FPRs by PSMα3 versus PSMα3N22Y was measured using synthetic peptides and Ca^2+ flux observed in HL60 cells stably transfected with the corresponding FPR genes as readout, using three biological and two technical replicates. The calculated Kd values are shown on the right. […] (B) Ca^2+ flux in human neutrophils upon addition of PSMα3 or PSMα3N22Y and inhibition by FLIPr (FPR2 inhibitor) or CHIPS (FPR1 inhibitor). Neutrophils were from three donors and the measurements were performed in quadruplicate. *, p<0.05; **, p<0.01; ***, p<0.001; ****, p<0.0001 (comparing values obtained with PSMα3 versus corresponding values obtained with PSMα3N22Y). TEXT PRINTED IN THE PICTURE: (A) PSMα3: Kd (nM): FPR1: 615.6 ± 101.2; Kd (nM): FPR2: 11.90 ± 1.90; Kd (nM): FPR3: 1377 ± 285 | (A) PSMα3 N22Y: Kd (nM): FPR1: 3039 ± 682; Kd (nM): FPR2: 10.81 ± 2.38; Kd (nM): FPR3: 953.0 ± 253.9
Synthetic PSM peptides were obtained from commercial vendors at a purity of >95%. They all carry the N-terminal N-formyl methionine as common for PSMs, which are secreted into the medium without a signal peptide. […]
(§2) Human neutrophils were isolated from venous blood of healthy donors as described, [39]. Neutrophil chemotaxis and Ca^2+ flux were determined as previously described, [24]. […] Chemotaxis of neutrophils was determined using a transwell system (Costar) with analysis of neutrophil migration using fluorescence labeling. Calcium fluxes were monitored as a surrogate marker for chemotaxis since it can be measured more robustly and accurately than chemotaxis. For measurement of Ca^2+ fluxes, 5×10^6 neutrophils/ml were labeled with a fluorescent dye and analyzed with a FACScalibur (Becton Dickinson) as described. […] Measurements of 2,000 events were performed and Ca^2+ flux was expressed as relative fluorescence corrected for buffer controls. […] At the desired times, PMN lysis was determined by release of lactate dehydrogenase (LDH) (Cytotoxicity Detection Kit, Roche Applied Sciences).

[2] = tested on: human neutrophils; assay: Human neutrophil chemotaxis / Ca2+ flux with FPR2 inhibited by FLIPr; settings: FLIPr 0.5 µg/ml, 20 min pre-incubation at room temperature, three donors, quadruplicate; for Chemotaxis with addition of FPR2 blocking agent FLIPr, 100 nM peptide: peptide 100 nM
Experimental: as §1
(A) Differential activation of FPRs by PSMα3 versus PSMα3N22Y was measured using synthetic peptides and Ca^2+ flux observed in HL60 cells stably transfected with the corresponding FPR genes as readout, using three biological and two technical replicates. The calculated Kd values are shown on the right. […] (B) Ca^2+ flux in human neutrophils upon addition of PSMα3 or PSMα3N22Y and inhibition by FLIPr (FPR2 inhibitor) or CHIPS (FPR1 inhibitor). […]
as §2

[3] = tested on: human neutrophils; assay: PMN lysis (LDH release); settings: 37°C, 1 h; for PMN lysis at high concentration: synthetic peptides at 10 µg/ml or higher
Experimental: Figure 5 PSMα3N22Y has diminished cytolytic activities. (A) PMN lysis of synthetic PSMα3N22Y versus PSMα3. Data are from 2 donors, measured in triplicate each after incubation at 37°C for 1 h. […] (B) Hemolysis of synthetic PSMα3N22Y versus PSMα3. Data are from 2 donors, measured in triplicate, after incubation at 37°C for 1 h. (C, D) PMN lysis and hemolysis, respectively, of culture filtrates from PSMα3N22Y- versus PSMα3-producing strains when expressed on plasmids. pTXΔ16 is the empty control vector. The background strain in all constructs is a PSM-free USA300 strain (LACΔpsmαΔpsmβΔhld). Culture filtrates were diluted 1∶20 for the PMN lysis and 1∶2 for the hemolysis measurements. PMN lysis results are from two and hemolysis data from one donor, with three replicates measured each. (E) PMN lysis of culture filtrates from MRSA252 (252) versus 252*, in which the psmα3 gene (expressing PSMα3N22Y) on the genome was changed to express PSMα3 as present in all non-CC30 strains. […] Culture filtrates were diluted 1∶10. *, p<0.05 (paired t-test). (F) Hemolysis of culture filtrates from the same strains as in (E) at different dilutions. (A–F), *, p<0.05; **, p<0.01; ***, p<0.001; ****, p<0.0001. […]
as §2

[4] = Ca2+ flux, transfected HL60 cells

Structure (SMILES)	FPR2-activating potential, PSMα3 versus PSMα3N22Y [1, 4]	Activation of FPR2 relative to FPR1 and FPR3 [1, 4]	Kd ([1]; one site-binding model from Ca2+ flux, synthetic peptides, FPR2-transfected HL60 cells, three biological and two technical replicates, error = standard deviation) [nM]	Chemotaxis with addition of FPR2 blocking agent FLIPr, 100 nM peptide [2]	Difference in chemotactic potential between the two peptides with FPR2 blocked, 1 µM peptide ([2]; peptide 1 µM)	PMN lysis at high concentration [3]	Cytolytic capacity toward human neutrophils ([3]; synthetic peptides, LDH release, 2 donors, triplicate, compared to PSMα3N22Y)
CSCC[C@H](NC=O)C(=O)N[C@@H](CCC(=O)O)C(=O)N[C@@H](Cc1ccccc1)C(=O)N[C@H](C(=O)N[C@@H](C)C(=O)N[C@@H](CCCCN)C(=O)N[C@@H](CC(C)C)C(=O)N[C@@H](Cc1ccccc1)C(=O)N[C@@H](CCCCN)C(=O)N[C@@H](Cc1ccccc1)C(=O)N[C@@H](Cc1ccccc1)C(=O)N[C@@H](CCCCN)C(=O)N[C@@H](CC(=O)O)C(=O)N[C@@H](CC(C)C)C(=O)N[C@@H](CC(C)C)C(=O)NCC(=O)N[C@@H](CCCCN)C(=O)N[C@@H](Cc1ccccc1)C(=O)N[C@@H](CC(C)C)C(=O)NCC(=O)N[C@@H](CC(N)=O)C(=O)N[C@@H](Cc1ccc(O)cc1)C(=O)O)C(C)C [PSMα3N22Y]	no difference in the FPR2-activating potential	activated FPR2 much stronger than FPR1 and FPR3	10.8 ± 2.38	no chemotaxis	very strong difference in chemotactic potential	completely lysed the neutrophils	–
CSCC[C@H](NC=O)C(=O)N[C@@H](CCC(=O)O)C(=O)N[C@@H](Cc1ccccc1)C(=O)N[C@H](C(=O)N[C@@H](C)C(=O)N[C@@H](CCCCN)C(=O)N[C@@H](CC(C)C)C(=O)N[C@@H](Cc1ccccc1)C(=O)N[C@@H](CCCCN)C(=O)N[C@@H](Cc1ccccc1)C(=O)N[C@@H](Cc1ccccc1)C(=O)N[C@@H](CCCCN)C(=O)N[C@@H](CC(=O)O)C(=O)N[C@@H](CC(C)C)C(=O)N[C@@H](CC(C)C)C(=O)NCC(=O)N[C@@H](CCCCN)C(=O)N[C@@H](Cc1ccccc1)C(=O)N[C@@H](CC(C)C)C(=O)NCC(=O)N[C@@H](CC(N)=O)C(=O)N[C@@H](CC(N)=O)C(=O)O)C(C)C [PSMα3]	–	activated FPR2 much stronger than FPR1 and FPR3	–	no chemotaxis	–	completely lysed the neutrophils	significantly higher cytolytic capacities
